Measured values: patent US9296690B2, “Method for inhibiting differentiation of osteoclast and pharmaceutical composition comprising thereof” (Metacine, Inc., priority 2012, dated 2016)
One block for each compound: values may come before it.

Key:
[1] = system: NF-kappa B; assay: Inhibition of NF-kappa B in RAW264.7 cells; assay type: cell-based, mouse; conditions: 10 μM, 12 hours, then ALLN and RANKL 30 minutes
Source text: It is confirmed that the compound of 4e is suppressed the mechanism of NF-kappa B 2 times more than ZA (FIG. 3)

[2] = biological target: T1, human integrin αyβ3 (Homo sapiens, UniProt P05106+P06756); assay: Inhibition activity of osteopontin-integrin binding (protein chip); conditions: n=6
T1 construct: purchased Milipore
Method: After the human integrin αyβ3 (100 μg/ml, Milipore) was fixed to the protein chip (PeproTech), the human recombinant OPN (40 μg/ml, PeproTech) molecule coupled with Cy5-fluorescent was reacted for 1 hour. Echistatin molecule (40 μg/ml, Sigma-Aldrich) was used as a positive control. The samples were simultaneously treated to conduct a comparative analysis for the binding inhibitory effect thereof. Finally, the strength of luminescence is scanned by using image analysis scanner and analyzed to the GraphPad Prism 4 software. […] The binding inhibitory activity of compound 4e of the invention was about 3 times higher than that of ZA (n=6)(FIG. 5).

[3] = biological target: T2, human recombinant sRNAK receptor (Homo sapiens, UniProt Q9Y6Q6); assay: Inhibition activity of RANK receptor binding (protein chip, sRANK ligand); conditions: n=6
T2 construct: human recombinant sRNAK receptor molecule; purchased PeproTech
T2 sequence (Q9Y6Q6 30-212 limits assumed): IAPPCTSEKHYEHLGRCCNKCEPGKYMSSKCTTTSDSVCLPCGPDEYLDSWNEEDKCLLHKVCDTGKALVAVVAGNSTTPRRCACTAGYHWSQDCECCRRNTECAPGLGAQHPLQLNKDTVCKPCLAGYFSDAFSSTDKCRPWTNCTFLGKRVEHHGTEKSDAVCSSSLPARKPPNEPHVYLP
Method: After the human recombinant sRNAK receptor molecule (100 μg/ml, PeproTech) was fixed to the protein chip (PeproTech), human recombinant sRANK ligand (10 μg/ml, PeproTech) was treated and incubated for 1 hour. OPG molecule was used as a positive control, and the compound and OPG are simultaneously treated. A comparative analysis was conducted to compare the binding inhibition effect of the compound using OPG as a control. Mouse anti-human sRANK ligand monoclonal antibody coupled with Cy5-fluorescent (1.0 μg/ml, PeproTech) was treated for 30 minutes, and scanning the strength of luminescence by using image analysis scanner and analyzed to the GraphPad Prism 4 software. Out of the above stated compounds, compound 4e and ZA were comparatively analyzed. […] That of the compound 4e was 46.70%.

[4] = system: RAW 264.7 cell; assay: Inhibition effect on osteoclast differentiation (RANKL-stimulated RAW 264.7 cells, TRAP stain, osteoclast count); assay type: cell-based, mouse; conditions: RAW 264.7 + RANKL; for osteoclast differentiation degree (number of cells differentiated to osteoclasts): 7 days, osteoclasts with more than 4 nuclei, two values per concentration, control 51.5
Method: RAW 264.7 cell, a mouse macrophage/monocyte cell line which can be differentiated in various forms depends on its surrounding environments and stimuli, is differentiated to multinucleated osteoclast by the stimulus of RANKL (100 ng/ml). Inhibition effect of each compound on osteoclast differentiation was analyzed by comparing the degree of osteoclast differentiation when RAW 264.7 cell was treated with RANKL and the subject each compound simultaneously.
Inhibition activities of osteoclast differentiation in respect of compounds 4a, 4b, 4c, 4d, 4e, 4f, 4 g, 4 h, 4i, 4j, 4k, 4l, 4m, 4n, 4o, 7a, 7b, 7c, and 7d were tested. Macrophage/monocyte RAW 264.7 cell was used as a cell and 1.5×10^3 cells were seeded in a 96 well plate. The synthesized compound and zoledronic acid as a control material were dissolved in 10% DMSO aqueous solution and treated to cells according to each concentration […].
After pre-treating each compound for 6 hours and then, treating RANKL, the incubation was carried out for 7 days in a 5% CO2 incubator. To observe osteoclasts well, they were stained by TRAP (tartrate resistance acid phosphatase) stain method. The number of cells differentiated to osteoclasts was counted and then, a comparative analysis was conducted for the degree of each compound's osteoclast differentiation.
Only the osteoclasts containing nucleus number more than 4 were only counted as effective analysis targets in both control and experiment groups (See FIGS. 1 and 2).

T1 sequence (P06756 31-889 limits assumed): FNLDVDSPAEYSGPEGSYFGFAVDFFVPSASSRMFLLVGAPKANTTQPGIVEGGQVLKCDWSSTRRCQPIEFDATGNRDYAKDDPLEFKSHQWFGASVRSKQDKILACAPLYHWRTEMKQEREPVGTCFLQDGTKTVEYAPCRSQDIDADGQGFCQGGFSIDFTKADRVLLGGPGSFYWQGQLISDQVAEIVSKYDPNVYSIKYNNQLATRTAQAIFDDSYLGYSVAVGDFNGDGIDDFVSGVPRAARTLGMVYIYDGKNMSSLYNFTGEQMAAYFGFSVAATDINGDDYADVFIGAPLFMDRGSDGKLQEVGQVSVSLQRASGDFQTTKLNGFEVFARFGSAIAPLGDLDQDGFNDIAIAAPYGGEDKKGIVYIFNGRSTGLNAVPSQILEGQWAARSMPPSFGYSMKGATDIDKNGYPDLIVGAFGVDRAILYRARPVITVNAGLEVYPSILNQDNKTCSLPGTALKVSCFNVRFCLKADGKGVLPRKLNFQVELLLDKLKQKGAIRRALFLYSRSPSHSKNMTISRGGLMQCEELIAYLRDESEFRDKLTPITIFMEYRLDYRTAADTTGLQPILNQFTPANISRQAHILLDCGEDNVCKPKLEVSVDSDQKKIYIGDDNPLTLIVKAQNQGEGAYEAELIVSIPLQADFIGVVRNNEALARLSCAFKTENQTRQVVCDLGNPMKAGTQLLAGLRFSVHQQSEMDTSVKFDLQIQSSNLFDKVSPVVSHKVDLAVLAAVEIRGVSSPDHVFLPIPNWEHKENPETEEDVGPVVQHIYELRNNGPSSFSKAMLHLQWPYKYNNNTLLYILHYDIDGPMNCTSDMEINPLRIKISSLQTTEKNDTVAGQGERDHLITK
T1 sequence (P06756 891-1048 partner limits assumed): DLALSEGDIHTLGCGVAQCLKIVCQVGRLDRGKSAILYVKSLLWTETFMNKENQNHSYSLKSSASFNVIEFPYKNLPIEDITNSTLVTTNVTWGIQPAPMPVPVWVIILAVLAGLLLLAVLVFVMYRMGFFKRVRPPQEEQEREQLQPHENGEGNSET
T1 sequence (P05106 27-788): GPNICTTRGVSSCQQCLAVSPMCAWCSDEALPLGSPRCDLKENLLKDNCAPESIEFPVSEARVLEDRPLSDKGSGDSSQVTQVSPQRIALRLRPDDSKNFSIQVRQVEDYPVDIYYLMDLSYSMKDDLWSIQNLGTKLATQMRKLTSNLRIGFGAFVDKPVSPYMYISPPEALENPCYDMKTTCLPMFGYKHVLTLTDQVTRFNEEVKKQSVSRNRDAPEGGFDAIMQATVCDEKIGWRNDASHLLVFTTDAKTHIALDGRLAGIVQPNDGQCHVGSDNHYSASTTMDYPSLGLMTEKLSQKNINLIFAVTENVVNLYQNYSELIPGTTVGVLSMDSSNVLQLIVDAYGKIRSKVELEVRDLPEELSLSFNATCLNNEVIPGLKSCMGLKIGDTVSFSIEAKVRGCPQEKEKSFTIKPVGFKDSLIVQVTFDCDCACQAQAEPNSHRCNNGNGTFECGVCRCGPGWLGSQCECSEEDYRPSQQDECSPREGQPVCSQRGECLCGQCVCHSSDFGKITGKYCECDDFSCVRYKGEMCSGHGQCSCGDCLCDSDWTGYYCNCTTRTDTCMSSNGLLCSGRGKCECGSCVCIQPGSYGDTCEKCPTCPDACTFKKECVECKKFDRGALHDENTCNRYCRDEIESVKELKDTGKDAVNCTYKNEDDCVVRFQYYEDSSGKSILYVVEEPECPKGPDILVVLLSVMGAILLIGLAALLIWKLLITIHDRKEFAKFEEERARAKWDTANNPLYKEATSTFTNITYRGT

Compound: CC(C)c1cccc(C(C)C)c1N1C(=O)C(c2ccccc2)=C(c2ccccc2)C1=O [Compound 4a, 1-(2,6-diisopropylphenyl)-3,4-diphenyl-1H-pyrrole-2,5-dione]
melting point: 233 to 234 °C

Compound: O=C1C(c2ccccc2)=C(c2ccccc2)C(=O)N1c1cccc(Cl)c1 [Compound 4d, 1-(3-chlorophenyl)-3,4-diphenyl-1H-pyrrole-2,5-dione]
melting point: 144 to 145 °C

Compound: O=C1C(c2ccccc2)=C(c2ccccc2)C(=O)N1C1CCCCC1 [Compound 4g, 1-cyclohexyl-3,4-diphenyl-1H-pyrrole-2,5-dione]
melting point: 159 to 160 °C

Compound: O=C(O)c1cc(N2C(=O)C(c3ccccc3)=C(c3ccccc3)C2=O)ccc1O [Compound 4i, 5-(2,5-dioxo-3,4-diphenyl-2,5-dihydro-1H-pyrrol-1-yl)-2-hydroxybenzoic acid]
melting point: 249 to 250 °C

Compound: O=P(O)(O)C(O)(Cn1ccnc1)P(=O)(O)O [ZA, zoledronic acid, reference compound]
binding inhibitory rate with integrin molecule (OPN-integrin) [2]: 8.65% | binding inhibitory activity upon to RANK receptor [3]: 27.55%

Compound: Echistatin [reference compound]
binding inhibitory rate with integrin molecule (OPN-integrin) [2]: 51.75%

Compound: OPG: OPG (osteoprotegrin) molecule, RANKL antagonist, used as a positive control [reference compound]
binding inhibitory activity upon to RANK receptor [3]: 83.65%

Now from value to compound, other results behind:

melting point: 213 to 214 °C
Compound: O=C1C(c2ccccc2)=C(c2ccccc2)C(=O)N1c1ccccc1Cl [Compound 4c, 1-(2-chlorophenyl)-3,4-dipheyl-1H-pyrrole-2,5-dione]

OPN-integrin binding inhibitory activity relative to ZA [2]: about 3 times | binding inhibitory rate with integrin molecule (OPN-integrin) [2]: 26.45% | binding inhibitory activity upon to RANK receptor [3]: 46.70% | binding inhibitory activity upon to RANK receptor relative to ZA [3]: about 1.7 times
Compound: O=C1C(c2ccccc2)=C(c2ccccc2)C(=O)N1c1ccc(Cl)cc1 [Compound 4e, 1-(4-chlorophenyl)-3,4-diphenyl-1H-pyrrole-2,5-dione]
suppression of the mechanism of NF-kappa B relative to ZA [1]: 2 times | inhibition effect on osteoclast differentiation (in words) [4]: more superior inhibition effect on osteoclast differentiation than the control group of zoledronic acid

melting point: 152 to 153 °C
Compound: O=C1C(c2ccccc2)=C(c2ccccc2)C(=O)N1c1ccccc1C(F)(F)F [Compound 4f, 3,4-diphenyl-1-(2-(trifluoromethyl)phenyl)-1H-pyrrole-2,5-dione]

melting point: 157 to 158 °C
Compound: O=C1C(c2ccccc2)=C(c2ccccc2)C(=O)N1c1cccc(F)c1 [Compound 4k, 1-(3-fluorophenyl)-3,4-diphenyl-1H-pyrrole-2,5-dione]
osteoclast differentiation degree (number of cells differentiated to osteoclasts) ([4]; 0.5 μM): 40 | osteoclast differentiation degree (number of cells differentiated to osteoclasts) ([4]; 1 μM): 25 | osteoclast differentiation degree (number of cells differentiated to osteoclasts) ([4]; 5 μM): 40 | osteoclast differentiation degree (number of cells differentiated to osteoclasts) ([4]; 10 μM): 28

melting point: 113 to 114 °C
Compound: O=C1C(c2ccccc2)=C(c2ccccc2)C(=O)N1Cc1ccccc1F [Compound 4n, 1-(2-fluorobenzyl)-3,4-diphenyl-1H-pyrrole-2,5-dione]

melting point: 107 to 108 °C
Compound: O=C1C(c2ccccc2)=C(c2ccccc2)C(=O)N1Cc1cccc(F)c1 [Compound 4o, 1-(3-fluorobenzyl)-3,4-diphenyl-1H-pyrrole-2,5-dione]

melting point: 111 to 112 °C
Compound: O=C1C(c2ccccc2)=C(c2ccccc2)C(=O)N1CCc1ccccc1F [Compound 4r, 1-(2-fluorophenethyl)-3,4-diphenyl-1H-pyrrole-2,5-dione]

melting point: 129 to 130 °C
Compound: O=C1C(c2ccccc2)=C(c2ccccc2)C(=O)N1CCc1cccc(F)c1 [Compound 4s, 1-(3-fluorophenethyl)-3,4-diphenyl-1H-pyrrole-2,5-dione]

melting point: 153 to 154 °C
Compound: O=C1C(c2ccccc2)=C(c2ccccc2)C(=O)N1CCc1ccc(F)cc1 [Compound 4t, 1-(4-fluorophenethyl)-3,4-diphenyl-1H-pyrrole-2,5-dione]
